Data reported in patent US20140228407A1, “TETRA-PYRIDINE COMPOUNDS AND COMPOSITION FOR PROTECTING CELLS, TISSUES AND ORGANS AGAINST ISCHEMIA-REPERFUSION INJURY” (YISSUM RESEARCH DEVELOPMENT COMPANY OF THE HEBREW …, priority 2011, published 2014).

Tested on: PC12 cells
Test: PC12 ischemic model (oxygen and glucose deprivation), cell death by LDH measurement
Format: cell-based
Settings: for protection percentile: protection from cell death, FIG. 6B: identical for both compounds
Method: PC12 cells were grown in 25 cm^2 flasks in Dulbecco's modified Eagles Medium (DMEM), supplemented with 7% fetal bovine serum (FBS), 7% horse serum, […] penicillin and 100 μg/ml streptomycin. Cells were grown in humidified incubator 5% CO2, 95% air at 37° C. The medium was replaced every 2 days, and upon 70% confluence, the cells were counted and seeded for the ischemia experiments.
Approximately 1×10^6 PC12 cells/well were cultured and exposed to ischemia (oxygen and glucose deprivation=OGD) for 4.5 hr. Prior to the exposure, the growth medium was replaced with glucose-free DMEM (1 ml/well). Ischemia was performed in a closed chamber by replacement of air with 95% nitrogen/5% CO2.
Ischemic stress injury was characterized by lactate dehydrogenase (LDH) released from cells. After 4.5 hr of ischemia, a 50 μl sample of supernatant was taken from each well for LDH measurement. At the end of the ischemic insult (after 4.5 hr), glucose (at final concentration of 4.5 g/L by adding 10 μl from stock solution of 450 mg/ml per well (1 ml)) was added to the plates which underwent ischemia. The plates were then transferred to a humidified incubator and exposed to 95% air/5% CO2 at 37° C. for additional 18 hr of reoxygenation. DMEM supernatant samples (25 μl/well) were collected from each well for LDH measurements. The samples were centrifuged at 3500 rpm for 5 min, and 5 μl aliquots of supernatant was taken for LDH measurement.
For every experiment, a duplicate plate was prepared as a control study under normoxia. Cells were kept in a humidified incubator (5% CO2 and 95% air at 37° C.) in cell culture complete medium at a volume of 1 ml for 18 hr, and the same compounds were added with the same concentrations. Supernatant was collected for LDH measurement as indicated in the LDH activity measurement section below. Afterwards (at the end of the reoxygenation phase), the plates were frozen (at −70° C. for 30 min) and thawed once. 25 μl/well sample was collected and the samples were centrifuged at 3500 rpm for 5 min and then taken for LDH measurement (total).
LDH activity was determined using LDH-L kit (Pointe Scientific Inc., Michigan, USA) in the PC12 cell medium. Medium samples (5 μl) were collected at the end of the ischemic insult (after 4.5 hr) and after the reoxygenation period. In parallel, samples from the plates exposed to normoxia were collected. LDH enzymatic activity was measured in a spectrophotometer at a wavelength of 340 nm at 37° C. Data analysis was performed as follows: [OD (cycle 3)−OD (cycle 1)experiment]−[OD(3)−OD(1) control])/[OD(3)−OD(1) total]×100, and presented as percentage of total cell death.
One day before the experiment, 12-well plates were coated with 200 μg/ml type I rat tail collagen (BD Biosciences, Bedford, Mass.) and were further sterilized under UV. 1×10^6 PC12 undifferentiated cells/well were seeded on the plates and allowed to adhere overnight under regular conditions (DMEM medium high glucose 4.5 mg/ml, 5% CO2 and 95% air at 37° C.). Each experiment included 4 plates, two for normoxia and two for ischemia which underwent the same following treatment for all 4 plates.
A half hour before the onset of the ischemic insult, the antioxidant Tempol (4-hydroxy-2,2,6,6-tetramethylpiperidine-1-oxyl) (Sigma, St. Louis, Mo.) at a concentration of 0.5 mM (10 μl/well taken from a 8.6 mg/ml stock solution) or TPEN at a concentration of 3 μM and 10 μM were added to the plates. Before the experiments, the medium was replaced with DMEM glucose free medium at 1 ml volume/well. TPEN or 10 μl Tempol were again added to the appropriate wells and was maintained throughout all experiments.
Thereafter, the plates were introduced into a device inducing ischemia atmosphere with 95% nitrogen and 5% CO2 for 4.5 hr. Oxygen level was monitored online by a digital oxygen monitor showing up to 1%. At the end of OGD, 25 μl from each well was collected into 0.5 ml tubes for the LDH assay. […]

Cc1ccc(CN(CCN(Cc2ccc(C)cn2)Cc2ccc(C)cn2)Cc2ccc(C)cn2)nc1 [Compound #6]
effectiveness relative to TPEN on PC12 cell death, FIG. 5 (1 μM vs 1 μM TPEN): 2 fold | protection of PC12 cells against ischemia insult-induced cell death vs TPEN at same concentration, FIG. 4 (1 μM vs 1 μM TPEN): significantly more potent then TPEN | protection of PC12 cells against ischemia insult-induced cell death vs 3 μM TPEN, FIG. 4 (1 μM vs 3 μM TPEN): more effective than 3 μM TPEN | effectiveness relative to the un-protected control group of cells, FIG. 5 (3 μM): 4 fold | effectiveness relative to TPEN on PC12 cell death, FIG. 5 (3 μM vs TPEN at the same concentration): 3 fold | protective effect on PC12 cell death, Compound #6 vs. Compound #4, FIG. 3 (at similar concentrations (300 nM, 1 μM, 3 μM)): more effective than Compound #4 | protection percentile: protection from cell death, FIG. 6B (first of two selected concentrations (not given)): 29% | protection percentile: protection from cell death, FIG. 6B (second of two selected concentrations (not given)): 63% | dose response function, attenuating cell death following ischemia-reperfusion, vs TPEN, FIG. 6A (selected concentrations): superior to the latter
